The target in one test is T1, H^+,K^+ -ATPase (Oryctolagus cuniculus, UniProt P27112).
T1 construct: Rabbit gastric glands were homogenized and microsomal fractions were prepared; from tissue; host or cells: rabbit gastric glands, light microsomal membrane fraction
In words: Inhibitory effects on the activity of H^+,K^+ -ATPase. The conditions noted are these: H^+,K^+ -ATPase-containing light membrane fractions from rabbit gastric glands; read-out: 50% Enzyme inhibitory concentration (IC50). In kind it is biochemical. As for the experimental part: (1) Inhibitory effects on the activity of H^+,K^+ -ATPase Rabbit gastric glands were homogenized and microsomal fractions were prepared by differential centrifugation of the resultant homogenate. The microsomal fractions were layered on 37% sucrose and centrifuged to obtain light membrane fractions containing H^+,K^+ -ATPase. Using the H^+,K^+ -ATPase-containing fractions, the effects of the compounds of this invention and omeprazole on the activity of H^+,K^+ -ATPase were examined. The inhibitory activities of the compounds of this invention on H^+,K^+ -ATPase measured by the above method are shown in Table I.

Test [1] concerns gastric ulcer induced by ethanol-hydrochloric acid. In words: Effect of preventing gastric ulcer induced by ethanol-hydrochloric acid. It counts as in vivo. The conditions noted are these: SD-strain male rats, oral, 30 min before 0.2N hydrochloric acid-50% ethanol (1 ml/rat); length of bleeding erosions; read-out: 50% Effective dose (ED50, mg/kg). As for the experimental part:
(3) Effect of preventing gastric ulcer induced by ethanol-hydrochloric acid According to the method of Robert et al. (see "Gastroenterology" 77, 433-443 (1979), SD-strain rats (male, weighing 200 to 220 g, 8 rats in each group) were deprived of food for 24 hours and of water for 19 hours. Each of the test compounds was suspended in 0.5% carboxymethyl cellulose, and orally administered to the rats. Thirty minutes after administration, 0.2N hydrochloric acid-50% ethanol (1 ml/rat) was orally administered. One hour after the administration of ethanol-hydrochloric acid, the rats were killed. The stomachs were dissected out, and the lower part of the esophagus was nipped with a clip. Aqueous 1% formalin solution (12.0 ml) was poured into the stomachs from the duodenum and then the duodenum part was nipped with a clip. The whole stomachs were immersed in aqueous 1% formalin for about 10 minutes for fixation. The stomachs were opened along the greater curvature and then rinsed with water. The gastric mucosa was examined and the lengths of bleeding erosions which occurred in the glandular stomach were measured in mm under an anatomic microscope. From the test results obtained by the above method, the ED50 (50% effective dose) of each of the test compounds was calculated.

For another test, the system named is gastric acid secretion. Nature of the test: Gastric acid antisecretory activity (histamine-enhanced gastric acid secretion in anesthetized rats). In kind it is in vivo. The conditions noted are these: Rattus norvegicus, iv, 1.25 h; male Doryu rats, urethane anesthesia, histamine infusion 2 mg/kg/hr, test compound via jugular vein 75 min after start of infusion; read-out: Gastric acid antisecretory activity 50% Effective dose (ED50, mg/kg). As for the experimental part:
(2) Gastric acid antisecretory activity The method of preparation was based on the technique of Osumi et al. (see "Life Science" 20, 1407, 1977). Male Doryu rats weighing about 250 g were deprived of food for 24 hours but were allowed free access to water before experiments. […] The esophagus was ligated, and bilateral vagus nerves were carefully separated and cut at the cervical portion. The abdomen was opened by a midoline incinion, and a polyethylene cannula (about 3.5 cm in length and 0.4 cm in diameter) was inserted into the stomach via an incision in the duodenum. After washout of the stomach with saline, 2.0 ml of fresh saline prewarmed at 38° C. was instilled and replaced with fresh solution at 15 min intervals. Several successive collections of basal acid secretion were made to confirm the steady level of secretion. After these collections, gastric acid secretion was enhanced by infusion of histamine. Gastric acid secretion was determined as follows: the total value of gastric solution recovered from the stomach every 15 min was titrated to pH 7.0 with 0.1N NaOH, using an automatic titrator (Radiometer, Copenhage, Denmark). Acid output secreted for 15 min were calculated as microequivalents per 15 min. […] From the acid output in a control group measured at the time when the acid output secreted was lowest, the acid secretion inhibitory ratio (R) was calculated in accordance with the following equation. [formula] wherein V° is the acid output produced when the animals were not treated with the test compounds (control), and V is the acid output acid produced when the test compounds were administered to the animals. Furthermore, from correlation line between the dose and the inhibitory ratio at the dose by using the method of least squares, the 50% inhibitory dose was determined.

Structures are written as SMILES. Counter-ions that a name gives are not always drawn.

This note sets out measurements from patent publication US4839353A, “Anti-ulcer substituted pyridine derivatives” (Banyu Pharmaceutical Co., Ltd., priority 1986, dated 1989).

T1 sequence (P27112 2-1035 limits assumed): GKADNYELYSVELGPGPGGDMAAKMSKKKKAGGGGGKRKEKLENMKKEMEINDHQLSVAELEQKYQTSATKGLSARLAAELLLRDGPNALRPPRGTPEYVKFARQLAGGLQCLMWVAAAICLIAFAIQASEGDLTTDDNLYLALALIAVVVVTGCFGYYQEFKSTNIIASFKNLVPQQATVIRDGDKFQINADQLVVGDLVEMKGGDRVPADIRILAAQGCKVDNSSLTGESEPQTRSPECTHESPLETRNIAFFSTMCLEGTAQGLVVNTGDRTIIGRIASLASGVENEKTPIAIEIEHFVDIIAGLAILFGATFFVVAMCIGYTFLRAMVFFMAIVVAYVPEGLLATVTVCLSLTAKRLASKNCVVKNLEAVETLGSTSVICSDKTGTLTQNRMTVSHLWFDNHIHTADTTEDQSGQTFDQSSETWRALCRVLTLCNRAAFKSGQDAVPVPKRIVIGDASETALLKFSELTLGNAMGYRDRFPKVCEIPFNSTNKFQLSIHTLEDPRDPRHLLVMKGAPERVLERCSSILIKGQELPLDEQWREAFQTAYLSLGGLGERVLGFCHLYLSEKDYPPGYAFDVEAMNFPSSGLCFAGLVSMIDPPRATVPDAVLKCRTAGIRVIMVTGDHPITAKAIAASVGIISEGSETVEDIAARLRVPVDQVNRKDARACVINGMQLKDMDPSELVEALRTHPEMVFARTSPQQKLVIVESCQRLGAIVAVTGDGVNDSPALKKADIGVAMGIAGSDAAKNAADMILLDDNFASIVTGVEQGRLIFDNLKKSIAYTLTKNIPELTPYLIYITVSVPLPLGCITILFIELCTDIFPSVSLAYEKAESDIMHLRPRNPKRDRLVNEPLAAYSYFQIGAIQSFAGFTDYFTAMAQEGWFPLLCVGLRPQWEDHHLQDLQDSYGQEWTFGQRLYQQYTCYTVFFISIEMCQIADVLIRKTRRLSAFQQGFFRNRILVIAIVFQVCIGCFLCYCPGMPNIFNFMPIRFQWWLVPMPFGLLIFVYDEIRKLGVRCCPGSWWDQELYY
T1 sequence (P18597 whole entry partner): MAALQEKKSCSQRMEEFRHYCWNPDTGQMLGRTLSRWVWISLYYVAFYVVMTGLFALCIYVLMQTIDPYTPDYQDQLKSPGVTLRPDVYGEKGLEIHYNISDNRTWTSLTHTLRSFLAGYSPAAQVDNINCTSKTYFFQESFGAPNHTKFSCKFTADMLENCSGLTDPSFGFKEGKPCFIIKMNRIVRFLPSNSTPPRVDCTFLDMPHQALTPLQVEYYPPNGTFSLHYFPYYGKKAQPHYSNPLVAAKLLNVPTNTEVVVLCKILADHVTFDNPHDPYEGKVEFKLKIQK

With `Cc1cnc(CSc2ccc3ccccc3c2)cc1N1CCCCC1.Cl` [Test compound 6, 5-methyl-2-[(2-naphthyl)thiomethyl]-4-piperidinopyridine hydrochloride], on H^+,K^+ -ATPase, the IC50 worked out at 9 µM. In addition, the ED50 in test [1] is 7.3 mg/kg.
For `Cc1ccc2cc(CCc3cc(N4CCCCC4)c(C)cn3)ccc2c1` [Test compound 29, 5-methyl-2-[2-(6-methyl-2-naphthyl)-ethyl]-4-piperidinopyridine hydrochloride], on H^+,K^+ -ATPase, the IC50 was found to be 2.3 µM.
On the same count and under the same terms, the same measure for `Cc1cnc(/C=C\c2cccc(Cl)c2Cl)cc1N1CCCCC1` [Test compound 20, (Z)-2-[2-(2,3-dichlorophenyl)vinyl]-5-methyl-4-piperidinopyridine hydrochloride]: 4.6 µM.
For the compound `Cc1cnc(CCc2cccc3ccccc23)cc1N1CCCCC1` [Test compound 22, 5-methyl-2-[2-(1-naphthyl)ethy]-4-piperidinopyridine hydrochloride], the results for the ED50 (with gastric acid secretion; in test [1]) were 2.5 mg/kg and 5.4 mg/kg, respectively. Further, the IC50 at H^+,K^+ -ATPase stood at 3.6 µM.
`Cc1cnc(/C=C\c2cccc3cccc(C)c23)cc1N1CCCCC1` [Test compound 11, (Z)-2-[2-(8-methyl-1-naphthyl)vinyl]-5-methyl-4-piperidinopyridine]: the ED50 in the test on gastric acid secretion is 0.92 mg/kg. Besides, the IC50 at H^+,K^+ -ATPase is 2.3 µM.
Take `Cc1cnc(COc2ccc(C3CCCCC3)cc2)cc1N1CCCCC1` [compound 4]: the IC50 on H^+,K^+ -ATPase was found to be 3.8 µM.
Turning to `COc1ccc2[nH]c([S+]([O-])Cc3ncc(C)c(OC)c3C)nc2c1` (stereo not drawn) [omeprazole, reference compound], the IC50 at H^+,K^+ -ATPase was determined as 6.2 µM. In test [1], the ED50 turned out to be 34.1 mg/kg.
For `Cc1cnc(COc2ccccc2)cc1N1CCCCC1.Cl` [Test compound 1, 5-methyl-2-phenoxymethyl-4-piperidinopyridine hydrochloride], in that order: 8.4 µM and 12.1 mg/kg.
Consider `Cc1cnc(/C=C/c2ccc3ccccc3c2)cc1N1CCCCC1` [Test compound 17, (E)-5-methyl-2-[2-(2-naphthyl)vinyl]-4-piperidinopyridine hydrochloride], for which the IC50 at H^+,K^+ -ATPase was 4.3 µM.
In the case of `Cc1cnc(/C=C\c2cccc3ccccc23)cc1OC1CCCCC1` [compound 12], the ED50 in the test with gastric acid secretion is 1.35 mg/kg. Further, on H^+,K^+ -ATPase, the IC50 came to 3.5 µM.
In the same order, the values of `Cc1cnc(/C=C\c2cccc3ccccc23)cc1N1CCCCC1` [compound 7] are 1.16 mg/kg and 2.2 µM.
In the same order, the values of `Cc1cnc(CCc2cccc3ccccc23)cc1N1CCCC(C)C1.Cl` (stereo not drawn) [Test compound 26, 5-methyl-4-(3-methylpiperidino)-2-[2-(1-naphthyl)ethyl]pyridine hydrochloride] are 0.91 mg/kg and 1.7 µM.
For the compound `Cc1cnc(CCc2cccc3ccccc23)cc1OC1CCCCC1.Cl` [Test compound 25, 4-cyclohexyloxy-5-methyl-2-[2-(1-naphthyl)ethyl]pyridine hydrochloride], in the test on gastric acid secretion, the ED50 turned out to be 0.91 mg/kg. For the same compound, the IC50 on H^+,K^+ -ATPase was 2.6 µM.
`Cc1cnc(CCc2ccc3ccccc3c2)cc1N1CCCCC1.Cl` [Test compound 28, 5-methyl-2-[2-(2-naphthyl)ethyl]-4-piperidinopyridine hydrochloride]: the IC50 on H^+,K^+ -ATPase stood at 3 µM. In addition, the ED50 in test [1] worked out at 3.6 mg/kg.
For `Cc1cnc(/C=C\c2ccc(F)c3ccccc23)cc1N1CCCCC1` [compound 9], the IC50 on H^+,K^+ -ATPase was determined as 5.9 µM.
Still for that read-out and setting: the same measure for `Cc1cnc(/C=C\c2ccc3ccccc3c2)cc1N1CCCCC1` [Test compound 18, (Z)-5-methyl-2-[2-(2-naphthyl)vinyl]-4-piperidinopyridine hydrochloride]: 8.4 µM.
Regarding `Cc1cnc(/C=C\c2ccc(Cl)c3ccccc23)cc1N1CCCCC1.Cl` [Test compound 8, (Z)-2-[2-(4-chloro-1-naphthyl)vinyl]-5-methyl-4-piperidinopyridine hydrochloride], the ED50 in the test with gastric acid secretion is 2.78 mg/kg. At H^+,K^+ -ATPase, the IC50 was determined as 4.8 µM.
`C(=C/c1cnccc1N1CCCCC1)/c1ccc2ccccc2c1` [Test compound 16, (Z)-3-[2-(2-naphthyl)vinyl]-4-piperidinopyridine]: on H^+,K^+ -ATPase, the IC50 was found to be 2.6 µM.
Still for that read-out and setting: the same measure for `Cc1cnc(/C=C\c2cccc3c(C)cccc23)cc1N1CCCCC1` [Test compound 10, (Z)-2-[2-(5-methyl-1-naphthyl)vinyl]-5-methyl-4-piperidinopyridine hydrochloride]: 6 µM; for `CCC(C)c1ccc(OCc2cc(N3CCCCC3)c(C)cn2)cc1` (stereo not drawn) [compound 3]: 4.1 µM; for `Cc1cnc(COc2ccc(C(C)(C)C)cc2)cc1N1CCCCC1` [compound 2]: 3.5 µM.
`Cc1cnc(/C=C\c2cccc3ccccc23)cc1N1CCCC(C)C1` (stereo not drawn) [compound 15]: in the test with gastric acid secretion, the ED50 stood at 0.99 mg/kg. Besides, on H^+,K^+ -ATPase, the IC50 is 1.7 µM.
`Cc1ccc2cc(/C=C\c3cc(N4CCCCC4)c(C)cn3)ccc2c1` [Test compound 19, (Z)-5-methyl-2-[2-(6-methyl-2-naphthyl)-vinyl]-4-piperidinopyridine]: the IC50 at H^+,K^+ -ATPase was 7.8 µM.
Same read-out and setting: the same measure for `Cc1cnc(CCc2ccc(C)c3ccccc23)cc1N1CCCCC1` [Test compound 23, 5-methyl-2-[2-(4-methyl-1-naphthyl)-ethyl]-4-piperidinopyridine hydrochloride]: 4.6 µM.
Turning to `Cc1cnc(CCc2cccc3cccc(C)c23)cc1N1CCCCC1.Cl` [Test compound 24, 5-methyl-2-[2-(8-methyl-1-naphthyl)-ethyl]-4-piperidinopyridine hydrochloride], in the test with gastric acid secretion, the ED50 was determined as 2.72 mg/kg. Besides, the IC50 at H^+,K^+ -ATPase amounted to 6 µM.
For `Cc1cnc(/C=C\c2cccc3ccccc23)cc1N1CCCCCC1` [compound 13], in that order: 0.9 mg/kg and 0.78 µM.
For `Cc1cnc(CCc2cccc3ccccc23)cc1N1CCC(C)CC1.Cl` [Test compound 21, 5-methyl-4-(4-methylpiperidino)-2-[2-(1-naphthyl)ethyl]pyridine hydrochloride], in that order: 0.78 mg/kg and 2.7 µM.
Consider `Cc1cnc(CSc2ccccc2)cc1N1CCCCC1.Cl` [Test compound 5, 5-methyl-2-phenylthiomethyl-4-piperidinopyridine hydrochloride], for which, at H^+,K^+ -ATPase, the IC50 stood at 16 µM. The ED50 in test [1] is 9.2 mg/kg.
For `Cc1cnc(CCc2ccccc2)cc1N1CCCCC1.Cl` [Test compound 27, 5-methyl-2-phenethyl-4-piperidinopyridine hydrochloride], in test [1], the ED50 is 5.4 mg/kg.
For the compound `Cc1cnc(/C=C\c2cccc3ccccc23)cc1N1CCC(C)CC1.Cl` [Test compound 14, (Z)-5-methyl-4-(4-methylpiperidino)-2-[2-(1-naphthyl)vinyl]pyridine hydrochloride], the ED50 in the test on gastric acid secretion came to 1.09 mg/kg. Further, the IC50 on H^+,K^+ -ATPase worked out at 2.8 µM.
